US20100009935A1, “RESISTANCE-REPELLENT […] INHIBITORS” (priority 2002, published 2010)
Read-outs that look alike come from different tables or passages of the source.

Legend:
Type in all cases: cell-based
HIV-1Ba-L = assay: microbe, parasite or virus in culture; details: Human immunodeficiency virus 1, 168 h, PBNC (PHA-PBMC), p24 production, day 7, read-out: MEAN IC50 (μM) ± SDs
Procedure: (§1) The sensitivities of HIV-1LAI, HIV-1Ba-L, HIV-2EHO and the primary HIV-1 isolates against various drugs were determined as previously described with minor modifications (Shiraska et al., Proc. Natl. Acad. Sci. USA, 92, 2398-2402 (1995)).

HIV-1LAI = assay: microbe, parasite or virus in culture; details: day 7, read-out: MEAN IC50 (μM) ± SDs
Procedure: as §1

HIV-2EHO = assay: Drug sensitivity of HIV-2EHO in MT-2 cells, MTT assay; details: Human immunodeficiency virus 2, MT2, 168 h, HT-2 (footnote: MT-2 cells), day 7, read-out: MEAN IC50 (μM) ± SDs
Procedure: as §1

[1] = tested on: HIV-1ERS104pre (wild-type clinical strain); assay: PI sensitivity of wild-type clinical isolate in PHA-PBMC, p24; details: for IC50: Human immunodeficiency virus 1, read-out: IC50 μM; for FOLD CHANGE of IC50: wild type HIV-1ERS104pre, reference (=1)
HIV-1 clinical isolate 1 = assay: PI sensitivity of PI-resistant clinical isolate 1 in PHA-PBMC, p24; details: for IC50: Human immunodeficiency virus 1, isolate 1: L10I, K14R, L33I, N36I, H46I, F53L, K55R, I62V, L63P, A71V, G73S, V82A, L90M, I93L, PHA-PBMC, p24; for FOLD CHANGE of IC50: isolate 1 compared to HIV-1wt (HIV-1ERS104pre)
HIV-1 clinical isolate 2 = assay: PI sensitivity of PI-resistant clinical isolate 2 in PHA-PBMC, p24; details: for IC50: Human immunodeficiency virus 1, isolate 2: L10I, I15V, K20R, N36I, H46L, I54V, K55R, I62V, L63P, K70D, V82A, L89N, PHA-PBMC, p24; for FOLD CHANGE of IC50: isolate 2 compared to HIV-1wt (HIV-1ERS104pre)
HIV-1 clinical isolate 3 = assay: PI sensitivity of PI-resistant clinical isolate 3 in PHA-PBMC, p24; details: for IC50: Human immunodeficiency virus 1, isolate 3: L10I, I15V, E35D, N37E, K45R, I54V, L63P, A71V, V82I, L90N, I93L, C95F, PHA-PBMC, p24; for FOLD CHANGE of IC50: isolate 3 compared to HIV-1wt (HIV-1ERS104pre)
HIV-1 clinical isolate 4 = assay: PI sensitivity of PI-resistant clinical isolate 4 in PHA-PBMC, p24; details: for IC50: Human immunodeficiency virus 1, isolate 4: L10I, V11I, T12E, I15V, L19I, B41K, H46L, L63P, A71T, V82A, L90M, PHA-PBMC, p24; for FOLD CHANGE of IC50: isolate 4 compared to HIV-1wt (HIV-1ERS104pre)
HIV-1 clinical isolate 5 = assay: PI sensitivity of PI-resistant clinical isolate 5 in PHA-PBMC, p24; details: for IC50: Human immunodeficiency virus 1, isolate 5: L10I, K43T, N46L, I54L, L63P, A71T, V82A, L90N, D92K, PHA-PBMC, p24; for FOLD CHANGE of IC50: isolate 5 compared to HIV-1wt (HIV-1ERS104pre)
HIV-1 clinical isolate 6 = assay: PI sensitivity of PI-resistant clinical isolate 6 in PHA-PBMC, p24; details: for IC50: Human immunodeficiency virus 1, isolate 6: L10I, K14R, B41K, H46L, I54V, L63P, A71V, V82A, L90M, I93L, PHA-PBMC, p24; for FOLD CHANGE of IC50: isolate 6 compared to HIV-1wt (HIV-1ERS104pre)
HIV-1 clinical isolate 7 = assay: PI sensitivity of PI-resistant clinical isolate 7 in PHA-PBMC, p24; details: for IC50: Human immunodeficiency virus 1, isolate 7: L10I, L24I, L33F, E35D, H36I, H37S, N46L, I54V, R57K, I62V, L63P, A71V, G73S, V82A, PHA-PBMC, p24; for FOLD CHANGE of IC50: isolate 7 compared to HIV-1wt (HIV-1ERS104pre)
HIV-1 clinical isolate 8 = assay: PI sensitivity of PI-resistant clinical isolate 8 in PHA-PBMC, p24; details: for IC50: Human immunodeficiency virus 1, isolate 8: L10R, H37D, N46I, I62V, L63P, A71V, G73S, V77I, V82T, L90M, I93L, PHA-PBMC, p24; for FOLD CHANGE of IC50: isolate 8 compared to HIV-1wt (HIV-1ERS104pre)
[2] = tested on: highly cross-resistant HIV-1 strains derived from AIDS patients
HIV-1NL4-3 = details: for FOLD CHANGE of IC50: HIV-1NL4-3, reference (=1); for IC50: Human immunodeficiency virus 1, MT2, 168 h, HIV-1NL4-3 (wild type), MT-2 cells, MTT assay, day 7
HIV-1UIC-P62 = assay: PI sensitivity of compound 1-selected HIV-1UIC-P62 in MT-2 cells, MTT assay; details: Human immunodeficiency virus 1, MT2, 168 h, HIV-1UIC-P62 (L10F, A28S, M46I, I50V, A71V, N88D), day 7
HIV-1APV-P30 = assay: PI sensitivity of APV-selected HIV-1APV-P30 in MT-2 cells, MTT assay; details: for FOLD CHANGE of IC50: HIV-1APV-P30 compared to HIV-1NL4-3 (wild type); for IC50: Human immunodeficiency virus 1, MT2, 168 h
[3] = Human immunodeficiency virus 1, 168 h, PBMC (PHA-PBMC), p24 production
[4] = Human immunodeficiency virus 1, MT2, 168 h, HT-2 (footnote: MT-2 cells), MTT assay
[5] = multidrug resistant patient isolates

| SMILES | IC50 (HIV-1Ba-L) [µM] | IC50 (HIV-1LAI; [3]) [µM] | IC50 (HIV-1LAI; [4]) [µM] | IC50 (HIV-2EHO) [µM] | IC50 [1] [µM] | FOLD CHANGE of IC50 [1] | IC50 (HIV-1 clinical isolate 1) [nM] | FOLD CHANGE of IC50 (HIV-1 clinical isolate 1) | IC50 (HIV-1 clinical isolate 2) [nM] | FOLD CHANGE of IC50 (HIV-1 clinical isolate 2) | IC50 (HIV-1 clinical isolate 3) [nM] | FOLD CHANGE of IC50 (HIV-1 clinical isolate 3) | IC50 (HIV-1 clinical isolate 4) [nM] | FOLD CHANGE of IC50 (HIV-1 clinical isolate 4) | IC50 (HIV-1 clinical isolate 5) [nM] | FOLD CHANGE of IC50 (HIV-1 clinical isolate 5) | IC50 (HIV-1 clinical isolate 6) [nM] | FOLD CHANGE of IC50 (HIV-1 clinical isolate 6) | IC50 (HIV-1 clinical isolate 7) [nM] | FOLD CHANGE of IC50 (HIV-1 clinical isolate 7) | other results |
| --- | --- | --- | --- | --- | --- | --- | --- | --- | --- | --- | --- | --- | --- | --- | --- | --- | --- | --- | --- | --- | --- |
| CC(C)(C)NC(=O)[C@@H]1CN(Cc2cccnc2)CCN1C[C@@H](O)C[C@@H](Cc1ccccc1)C(=O)N[C@H]1c2ccccc2C[C@H]1O [IDV, Indinavir] | 0.017 ± 0.011 | 0.015 ± 0.004 | 0.019 ± 0.009 | 0.01 ± 0.004 | 0.013 | (1) fold | > 1000 | (>77) fold | 490 | (38) fold | 490 | (38) fold | 210 | (16) fold | > 1000 | (>77) fold | 300 | (23) fold | > 1000 | (>77) fold | IC50 (HIV-1 clinical isolate 8): 550 nM; FOLD CHANGE of IC50 (HIV-1 clinical isolate 8): (42) fold; antiviral activity against patient isolates with multiple mutations compared with wild type HIV strains (in words) [2]: dramatically less potent; FOLD CHANGE of IC50 (HIV-1NL4-3): (1) fold; IC50 (HIV-1NL4-3): 11 nM; IC50 (HIV-1UIC-P62): 80 nM; FOLD CHANGE of IC50 (HIV-1APV-P30): (30) fold; IC50 (HIV-1APV-P30): 320 nM |
| CC(C)c1nc(CN(C)C(=O)N[C@H](C(=O)N[C@@H](Cc2ccccc2)C[C@H](O)[C@H](Cc2ccccc2)NC(=O)OCc2cncs2)C(C)C)cs1 [RTV, Ritonavir] | 0.038 ± 0.02 | 0.04 ± 0.008 | 0.041 ± 0.005 | 0.35 ± 0.025 | 0.044 | (1) fold | > 1000 | (>23) fold | > 1000 | (>23) fold | > 1000 | (>23) fold | > 1000 | (>23) fold | > 1000 | (>23) fold | > 1000 | (>23) fold | > 1000 | (>23) fold | IC50 (HIV-1 clinical isolate 8): > 1000 nM; FOLD CHANGE of IC50 (HIV-1 clinical isolate 8): (>23) fold; antiviral activity against patient isolates with multiple mutations compared with wild type HIV strains (in words) [2, 5]: dramatically less potent; FOLD CHANGE of IC50 (HIV-1NL4-3): (1) fold; IC50 (HIV-1NL4-3): 38 nM; IC50 (HIV-1UIC-P62): 55 nM; FOLD CHANGE of IC50 (HIV-1APV-P30): (>26) fold; IC50 (HIV-1APV-P30): > 1000 nM |
| CC(C)(C)NC(=O)[C@@H]1C[C@@H]2CCCC[C@@H]2CN1C[C@@H](O)[C@H](Cc1ccccc1)NC(=O)[C@H](CC(N)=O)NC(=O)c1ccc2ccccc2n1 [SQV, Saquinavir] | 0.014 ± 0.01 | 0.011 ± 0.005 | 0.023 ± 0.002 | 0.004 ± 0.0005 | 0.03 | (1) fold | 270 | (27) fold | 37 | (4) fold | 36 | (4) fold | 33 | (3) fold | 310 | (31) fold | 190 | (19) fold | 120 | (12) fold | IC50 (HIV-1 clinical isolate 8): 42 nM; FOLD CHANGE of IC50 (HIV-1 clinical isolate 8): (4) fold; level of resistance (fold), range over the isolates ([2]; compared to wild-type clinical strain HIV-1ERS104pre): 3-31 fold; antiviral activity against patient isolates with multiple mutations compared with wild type HIV strains (in words) [2, 5]: dramatically less potent; FOLD CHANGE of IC50 (HIV-1NL4-3): (1) fold; IC50 (HIV-1NL4-3): 19 nM; IC50 (HIV-1UIC-P62): 10 nM; FOLD CHANGE of IC50 (HIV-1APV-P30): (2) fold; IC50 (HIV-1APV-P30): 35 nM |
